Assay results as given in patent publication US20250171430A1, “PYRAZOLYL COMPOUNDS AS KV7 CHANNEL ACTIVATORS” (Biohaven Therapeutics Ltd., priority 2022, published 2025).

Target: T1, Kv7.2/7.3 (Homo sapiens, UniProt O43525+O43526)
T1 construct: Kv7.2 tetracycline-induced, Kv7.3 constitutive
Assay: Kv7.2/7.3 Activation Assay (Thallium Flux Assay)
Format: cell-based
Details: hKV7.2/7.3 cell line; test compound at single concentration of 10 μM; fluorescence at 90 sec normalized to positive control (retigabine, 30 μM)
Outline: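 Single-point activity at 10 μM (0.1% DMSO, HEPES-buffered saline, pH 7.4) was scored from fluorescence at 90 s relative to 30 μM retigabine. Categories were none <0.15, moderate 0.15-0.7 and high >0.7. Thallium influx after stimulus addition was followed with FluxOR II Green dye in hKv7.2/7.3 cells, Kv7.2 expressed under overnight tetracycline (10 ng/mL) induction.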

Q: With `Cn1nc(NC(=O)CC2(C(F)(F)F)CC2)c(C2CCC2)c1-c1ccccc1F` [Compound 105, N-(4-cyclobutyl-5-(2-fluorophenyl)-1-methyl-1H-pyrazol-3-yl)-2-(1-(trifluoromethyl)cyclopropyl)acetamide] as the compound, how does the “Kv7.2/7.3 Activity” value read?
A: ++ (“++” High Activity ≥ 0.7)

Q: How did the “Kv7.2/7.3 Activity” value turn out when `Cn1nc(NC(=O)C2(C(C)(F)F)CC2)c(C2CCC2)c1-c1ccccc1F` [Compound 171, N-(4-cyclobutyl-5-(2-fluorophenyl)-1-methyl-1H-pyrazol-3-yl)-1-(1,1-difluoroethyl)cyclopropane-1-carboxamide] was run?
A: + (“+” Moderate Activity 0.15-0.7)

Q: With `Cn1nc(NC(=O)C2(C)CC(F)(F)C2)c(C2CCC2)c1-c1ccc(F)cc1` [Compound 199, N-(4-cyclobutyl-5-(4-fluorophenyl)-1-methyl-1H-pyrazol-3-yl)-3,3-difluoro-1-methylcyclobutane-1-carboxamide] as the compound, how does the “Kv7.2/7.3 Activity” value read?
A: ++ (“++” High Activity ≥ 0.7)

Q: With `Cn1nc(NC(=O)[C@H]2CC2(F)F)c(C2CCC2)c1C1CC(F)(F)C1` [Compound 157, (R)-N-(4-cyclobutyl-5-(3,3-difluorocyclobutyl)-1-methyl-1H-pyrazol-3-yl)-2,2-difluorocyclopropane-1-carboxamide] as the compound, how does the “Kv7.2/7.3 Activity” value read?
A: ++ (“++” High Activity ≥ 0.7)

Q: For `Cn1nc(NC(=O)[C@H]2C[C@@]2(C)C(F)F)c(C2CCC2)c1-c1ccc(F)cc1` [Compound 112, (1S,2R)-N-(4-cyclobutyl-5-(4-fluorophenyl)-1-methyl-1H-pyrazol-3-yl)-2-(difluoromethyl)-2-methylcyclopropane-1-carboxamide], which “Kv7.2/7.3 Activity” value is on record?
A: ++ (“++” High Activity ≥ 0.7)

Q: `O=C(Nc1nn(CCO)c(-c2ccc(Cl)s2)c1C1CCC1)C1CC(F)(F)C1` [Compound 229, N-(5-(5-chlorothiophen-2-yl)-4-cyclobutyl-1-(2-hydroxyethyl)-1H-pyrazol-3-yl)-3,3-difluorocyclobutane-1-carboxamide] was tested. Which “Kv7.2/7.3 Activity” value did it give?
A: ++ (“++” High Activity ≥ 0.7)

Q: `Cn1nc(NC(=O)CC2(C(F)(F)F)CC2)c(C2CCC2)c1-c1ccc(C(F)(F)F)cn1` [Compound 36, N-(4-cyclobutyl-1-methyl-5-(5-(trifluoromethyl)pyridin-2-yl)-1H-pyrazol-3-yl)-2-(1-(trifluoromethyl)cyclopropyl)acetamide] was tested. Which “Kv7.2/7.3 Activity” value did it give?
A: − (“−” No Activity < 0.15)

Q: Which “Kv7.2/7.3 Activity” value does the source give for `Cn1nc(NC(=O)CC2(C(F)(F)F)CC2)c(C2CCC2)c1-c1cnc(C(F)(F)F)s1` [Compound 50, N-(4-cyclobutyl-1-methyl-5-(2-(trifluoromethyl)thiazol-5-yl)-1H-pyrazol-3-yl)-2-(1-(trifluoromethyl)cyclopropyl)acetamide] here?
A: − (“−” No Activity < 0.15)

Q: How did the “Kv7.2/7.3 Activity” value turn out when `Cn1nc(NC(=O)CC2(C(F)(F)F)CCC2)c(C2CCC2)c1C1(C(F)(F)F)CCC1` [Compound 88, N-(4-cyclobutyl-1-methyl-5-(1-(trifluoromethyl)cyclobutyl)-1H-pyrazol-3-yl)-2-(1-(trifluoromethyl)cyclobutyl)acetamide] was run?
A: ++ (“++” High Activity ≥ 0.7)

Q: Which “Kv7.2/7.3 Activity” value does the source give for `CCn1nc(NC(=O)Cc2cc(Cl)ccc2Cl)c(C2CC2)c1C` [Compound 9, N-(4-cyclopropyl-1-ethyl-5-methyl-1H-pyrazol-3-yl)-2-(2,5-dichlorophenyl)acetamide] here?
A: + (“+” Moderate Activity 0.15-0.7)

Q: With `Cn1nc(NC(=O)[C@H]2CC2(F)F)c(C2CCC2)c1-c1ccc(Cl)s1` [Compound 154, (R)-N-(5-(5-chlorothiophen-2-yl)-4-cyclobutyl-1-methyl-1H-pyrazol-3-yl)-2,2-difluorocyclopropane-1-carboxamide] as the compound, how does the “Kv7.2/7.3 Activity” value read?
A: + (“+” Moderate Activity 0.15-0.7)

Q: `Cn1nc(NC(=O)OCC(F)F)c(C2CCC2)c1C1COC1` [Compound 280, 2,2-difluoro-213-ethyl (4-cyclobutyl-1-methyl-5-(oxetan-3-yl)-1H-pyrazol-3-yl)carbamate] was tested. Which “Kv7.2/7.3 Activity” value did it give?
A: − (“−” No Activity < 0.15)

Q: How did the “Kv7.2/7.3 Activity” value turn out when `Cn1nc(NC(=O)C2CC(F)(F)C2)c(C2(C)CCC2)c1-c1ccc(F)cc1` [Compound 286, 3,3-difluoro-N-(5-(4-fluorophenyl)-1-methyl-4-(1-methylcyclobutyl)-1H-pyrazol-3-yl)cyclobutane-1-carboxamide] was run?
A: ++ (“++” High Activity ≥ 0.7)

Q: How did the “Kv7.2/7.3 Activity” value turn out when `CCOC(=O)Nc1nn(C)c(-c2ccc(F)cc2)c1C1CCC1` [Compound 75, ethyl (4-cyclobutyl-5-(4-fluorophenyl)-1-methyl-1H-pyrazol-3-yl)carbamate] was run?
A: + (“+” Moderate Activity 0.15-0.7)

Q: `Cn1nc(NC(=O)CC2CC(F)(F)C2)c(C2CCC2)c1-c1ccccc1F` [Compound 106, N-(4-cyclobutyl-5-(2-fluorophenyl)-1-methyl-1H-pyrazol-3-yl)-2-(3,3-difluorocyclobutyl)acetamide] was tested. Which “Kv7.2/7.3 Activity” value did it give?
A: ++ (“++” High Activity ≥ 0.7)

Q: How did the “Kv7.2/7.3 Activity” value turn out when `Cn1nc(NC(=O)[C@H]2C[C@]2(C)C(F)F)c(C2CCC2)c1-c1ccc(F)cc1` [Compound 111, (1S,2S)-N-(4-cyclobutyl-5-(4-fluorophenyl)-1-methyl-1H-pyrazol-3-yl)-2-(difluoromethyl)-2-methylcyclopropane-1-carboxamide] was run?
A: ++ (“++” High Activity ≥ 0.7)

Q: For `Cn1nc(NC(=O)C[C@H]2CC(F)(F)C2(F)F)c(C2CC(F)(F)C2)c1-c1ccc(OC(F)(F)F)cc1` [Compound 40, (S)-N-(4-(3,3-difluorocyclobutyl)-1-methyl-5-(4-(trifluoromethoxy)phenyl)-1H-pyrazol-3-yl)-2-(2,2,3,3-tetrafluorocyclobutyl)acetamide], which “Kv7.2/7.3 Activity” value is on record?
A: ++ (“++” High Activity ≥ 0.7)

Q: With `Cn1nc(NC(=O)CC(C)(C)C(F)(F)F)c(C2CCC2)c1-c1ccccc1` [Compound 13, N-(4-cyclobutyl-1-methyl-5-phenyl-1H-pyrazol-3-yl)-4,4,4-trifluoro-3,3-dimethylbutanamide] as the compound, how does the “Kv7.2/7.3 Activity” value read?
A: ++ (“++” High Activity ≥ 0.7)

Q: For `Cn1nc(NC(=O)[C@H]2CC2(F)F)c(C2CCC2)c1-c1ccc(Cl)cc1` [Compound 224, (R)-N-(5-(4-chlorophenyl)-4-cyclobutyl-1-methyl-1H-pyrazol-3-yl)-2,2-difluorocyclopropane-1-carboxamide], which “Kv7.2/7.3 Activity” value is on record?
A: − (“−” No Activity < 0.15)

Q: Which “Kv7.2/7.3 Activity” value does the source give for `Cn1nc(NC(=O)C2CSC2)c(C2CCC2)c1-c1cc(F)cc(F)c1` [Compound 257, N-(4-cyclobutyl-5-(3,5-difluorophenyl)-1-methyl-1H-pyrazol-3-yl)thietane-3-carboxamide] here?
A: ++ (“++” High Activity ≥ 0.7)

Q: Which “Kv7.2/7.3 Activity” value does the source give for `Cn1nc(NC(=O)C2CC(F)(F)C2)c(C2CCC2)c1-c1ccc(F)cc1` [Compound 125, N-(4-cyclobutyl-5-(4-fluorophenyl)-1-methyl-1H-pyrazol-3-yl)-3,3-difluorocyclobutane-1-carboxamide] here?
A: ++ (“++” High Activity ≥ 0.7)

Q: How did the “Kv7.2/7.3 Activity” value turn out when `C[C@@H](C(=O)Nc1nn(C)c(-c2ccc(F)cc2)c1C1CCC1)C(C)(C)C` [Compound 114, (R)-N-(4-cyclobutyl-5-(4-fluorophenyl)-1-methyl-1H-pyrazol-3-yl)-2,3,3-trimethylbutanamide] was run?
A: ++ (“++” High Activity ≥ 0.7)

Q: How did the “Kv7.2/7.3 Activity” value turn out when `Cc1c(C2CCC2)c(NC(=O)Cc2cc(F)cc(F)c2)nn1C` [Compound 1, N-(4-cyclobutyl-1,5-dimethyl-1H-pyrazol-3-yl)-2-(3,5-difluorophenyl)acetamide] was run?
A: + (“+” Moderate Activity 0.15-0.7)

Q: `Cn1nc(NC(=O)C2C(C)(C)C2(C)C)c(C2CCC2)c1-c1ccc(OC(F)(F)F)cc1` [Compound 51, N-(4-cyclobutyl-1-methyl-5-(4-(trifluoromethoxy)phenyl)-1H-pyrazol-3-yl)-2,2,3,3-tetramethylcyclopropane-1-carboxamide] was tested. Which “Kv7.2/7.3 Activity” value did it give?
A: + (“+” Moderate Activity 0.15-0.7)

Q: Which “Kv7.2/7.3 Activity” value does the source give for `Cn1nc(NC(=O)C2CC(C)(C)C2)c(C2CCC2)c1-c1ccc(F)cc1` [Compound 121, N-(4-cyclobutyl-5-(4-fluorophenyl)-1-methyl-1H-pyrazol-3-yl)-3,3-dimethylcyclobutane-1-carboxamide] here?
A: ++ (“++” High Activity ≥ 0.7)

Q: `Cn1nc(NC(=O)C[C@@H]2CC(F)(F)C2(F)F)c(C2CCC2)c1-c1cc(F)c(F)c(F)c1` [Compound 262, (R)-N-(4-cyclobutyl-1-methyl-5-(3,4,5-trifluorophenyl)-1H-pyrazol-3-yl)-2-(2,2,3,3-tetrafluorocyclobutyl)acetamide] was tested. Which “Kv7.2/7.3 Activity” value did it give?
A: ++ (“++” High Activity ≥ 0.7)

Q: `Cn1nc(NC(=O)C2(O)CC2)c(C2CCC2)c1-c1ccc(F)cc1` [Compound 130, N-(4-cyclobutyl-5-(4-fluorophenyl)-1-methyl-1H-pyrazol-3-yl)-1-hydroxycyclopropane-1-carboxamide] was tested. Which “Kv7.2/7.3 Activity” value did it give?
A: − (“−” No Activity < 0.15)

Q: For `Cn1nc(NC(=O)C23CC(C(F)(F)F)(C2)C3)c(C2CCC2)c1-c1ccc(F)cc1` [Compound 179, N-(4-cyclobutyl-5-(4-fluorophenyl)-1-methyl-1H-pyrazol-3-yl)-3-(trifluoromethyl)bicyclo[1.1.1]pentane-1-carboxamide], which “Kv7.2/7.3 Activity” value is on record?
A: ++ (“++” High Activity ≥ 0.7)

Q: How did the “Kv7.2/7.3 Activity” value turn out when `C[C@H](C(=O)Nc1nn(C)c(-c2ccc(OC(F)(F)F)cc2)c1C1CCC1)C1CC(F)(F)C1` [Compound 177, (S)-N-(4-cyclobutyl-1-methyl-5-(4-(trifluoromethoxy)phenyl)-1H-pyrazol-3-yl)-2-(3,3-difluorocyclobutyl)propanamide] was run?
A: ++ (“++” High Activity ≥ 0.7)

Q: `Cn1nc(NC(=O)C2CC(F)(F)C2)c(C2CCC2)c1C1CCC(F)(F)CC1` [Compound 289, N-(4-cyclobutyl-5-(4,4-difluorocyclohexyl)-1-methyl-1H-pyrazol-3-yl)-3,3-difluorocyclobutane-1-carboxamide] was tested. Which “Kv7.2/7.3 Activity” value did it give?
A: ++ (“++” High Activity ≥ 0.7)
